Several values for one entry are separate records, joined by “and”; a condition that tells them apart may be missing. Identical values can stand only once.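 Test compounds were applied to cells in 96-well plates for 48 hours at 5 doses. At the GI50, growth is halved. TGI is the concentration that stops growth completely.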

Our source for the TGI and GI50 values is PubChem BioAssay (NCI).

Among the test systems are HOP-62 NSCLC; XF 498 CNS; NCI-H23 lung; K-562 leukemia; KM20L2 colon; SNB-19 CNS; IGROV1 ovarian; UACC-257 melanoma; SN12C renal; EKVX NSCLC.
What all share (assay): NCI anticancer screen, dose series, 48 h

On to `COc1cc(C)c(O)c(C(=O)O)c1`, for which the TGI in the assay on HOP-62 NSCLC, with XF 498 CNS, with NCI-H23 lung, in the assay with K-562 leukemia, in the assay on KM20L2 colon and in the assay on SNB-19 CNS was more than 100 µM throughout. Moreover, the TGI with IGROV1 ovarian, with UACC-257 melanoma and in the assay with SN12C renal was more than 100 µM each time.

In the case of `COC(=O)C1=C(C(=O)OC)SC(=C(N=Nc2ccccc2)c2ccccc2)S1`, the TGI in the assay with HOP-62 NSCLC, in the assay with NCI-H23 lung, with K-562 leukemia, with KM20L2 colon, in the assay with SNB-19 CNS and in the assay on EKVX NSCLC was more than 100 µM each time. Moreover, the TGI in the assay with IGROV1 ovarian, with UACC-257 melanoma and in the assay on SN12C renal was more than 100 µM each time.

Take `COC(=O)c1cc(-c2cccn2C)c2c(c1C(=O)OC)c1ccccc1n2C`: the TGI in the assay on XF 498 CNS, in the assay on NCI-H23 lung, with K-562 leukemia, with SNB-19 CNS, in the assay with IGROV1 ovarian and in the assay on UACC-257 melanoma was more than 100 µM throughout. Moreover, the TGI with SN12C renal is more than 100 µM.

On to `O=c1[nH]c(-c2ccc(-c3nc4cc([N+](=O)[O-])ccc4c(=O)[nH]3)cc2)nc2cc([N+](=O)[O-])ccc12`, for which the TGI with HOP-62 NSCLC, with NCI-H23 lung, in the assay with K-562 leukemia, in the assay with KM20L2 colon, in the assay on SNB-19 CNS and in the assay on EKVX NSCLC was more than 100 µM in each case. The TGI with IGROV1 ovarian, in the assay with UACC-257 melanoma and in the assay with SN12C renal was more than 100 µM in each case.

Consider `C=CC1C(OC2OC(CO)C(O)C(O)C2O)OC=C(C(=O)OC)C1CC=O` (centres undefined), for which the TGI in the assay on HOP-62 NSCLC, in the assay with NCI-H23 lung, in the assay on K-562 leukemia, in the assay with KM20L2 colon, in the assay with SNB-19 CNS and with EKVX NSCLC was more than 100 µM each time. The TGI in the assay on IGROV1 ovarian and in the assay with SN12C renal was more than 100 µM throughout.

As to `COc1cc(/C=C/C(=O)c2sc(NNC(C)=O)nc2C)ccc1O`, the TGI with HOP-62 NSCLC, with NCI-H23 lung, in the assay on K-562 leukemia, in the assay with KM20L2 colon, with EKVX NSCLC and with IGROV1 ovarian was more than 100 µM throughout. The TGI with UACC-257 melanoma and in the assay on SN12C renal was more than 100 µM in each case.

Regarding `C1CCOC2(CCC3(CC2)OCCCCO3)OC1`, the TGI with HOP-62 NSCLC, in the assay with K-562 leukemia, in the assay with KM20L2 colon, in the assay with SNB-19 CNS, with IGROV1 ovarian and in the assay with UACC-257 melanoma was more than 100 µM throughout. The same compound displayed a TGI in the assay with SN12C renal of more than 100 µM.

For the compound `CC(=O)NC1CC2Oc3ccc(C)cc3C(C)(O2)C1O` (centres undefined), the TGI in the assay with HOP-62 NSCLC, in the assay on XF 498 CNS, in the assay with NCI-H23 lung, in the assay with K-562 leukemia, with SNB-19 CNS and in the assay with EKVX NSCLC was more than 100 µM throughout. Moreover, the TGI with IGROV1 ovarian, in the assay on UACC-257 melanoma and with SN12C renal was more than 100 µM each time.

As to `C=CCC(OCCOCC)c1cc(OCCOCC)ccc1OC` (centres undefined), the TGI in the assay with HOP-62 NSCLC, with XF 498 CNS, with K-562 leukemia, in the assay on SNB-19 CNS, in the assay with EKVX NSCLC and with IGROV1 ovarian was more than 100 µM throughout. In addition, the TGI in the assay with UACC-257 melanoma and with SN12C renal was more than 100 µM in each case.

As for `Cn1ccnc1C(=O)/C=C/c1ccc(CC(=O)Nc2ccc(C(F)(F)F)cc2)cc1`, the GI50 was more than 16.7 µM in the assay on HOP-62 NSCLC; 3.28 µM in the assay with NCI-H23 lung; 0.614 µM in the assay with K-562 leukemia; 2.46 µM in the assay with SNB-19 CNS; 3.07 µM in the assay on EKVX NSCLC; 4.37 µM in the assay on IGROV1 ovarian. Moreover, the GI50 is 8.03 µM in the assay on UACC-257 melanoma and 4.32 µM with SN12C renal. Moreover, the TGI is more than 16.7 µM with HOP-62 NSCLC; 6.9 µM with NCI-H23 lung; more than 16.7 µM in the assay with K-562 leukemia; 5.09 µM in the assay on SNB-19 CNS; 8.49 µM with EKVX NSCLC; 12.9 µM in the assay with IGROV1 ovarian. Also, the TGI in the assay on UACC-257 melanoma and with SN12C renal was more than 16.7 µM throughout.

For the compound `c1ccc(P(CCP(CCP(c2ccccc2)c2ccccc2)c2ccccc2)CCP(c2ccccc2)c2ccccc2)cc1` (centres undefined), the TGI with HOP-62 NSCLC, in the assay with NCI-H23 lung, with K-562 leukemia, in the assay with SNB-19 CNS, with EKVX NSCLC and in the assay with IGROV1 ovarian was more than 10 µM in each case. In addition, the TGI in the assay on UACC-257 melanoma and in the assay on SN12C renal was more than 10 µM in each case. Further, the GI50 in the assay with SNB-19 CNS was more than 10 µM; in the assay on EKVX NSCLC, more than 10 µM; with SN12C renal it was > 10 µM and 3.94 µM.

Regarding `Nc1nc(N)c(N=O)c(OCC2CCCCC2)n1`, the TGI is > 100 µM and 76.5 µM with HOP-62 NSCLC; more than 100 µM with NCI-H23 lung; more than 100 µM in the assay on K-562 leukemia; more than 100 µM in the assay on SNB-19 CNS; > 94.5 µM and 64.2 µM in the assay on EKVX NSCLC; 24.1 µM and 24.5 µM in the assay with IGROV1 ovarian. In addition, the TGI in the assay with UACC-257 melanoma is > 100 µM and 38.9 µM; in the assay on SN12C renal it was > 100 µM and 62.8 µM. Moreover, the GI50 is 9.71 µM with NCI-H23 lung; 27 µM in the assay with EKVX NSCLC; 3.69 µM with IGROV1 ovarian; 17.2 µM in the assay with UACC-257 melanoma; 5.87 µM in the assay with SN12C renal.

Regarding `C/C=C/[C@@H]1OC(=O)C2=C[C@@H](O)[C@@H](/C=C/C)O[C@H]21`, the GI50 in the assay with HOP-62 NSCLC was 20 µM; with NCI-H23 lung it was 3.08 µM; in the assay on K-562 leukemia, 1.84 µM; in the assay on SNB-19 CNS, 16.6 µM; with EKVX NSCLC it was 7.26 µM; in the assay on IGROV1 ovarian it was 7.62 µM. Further, the GI50 with UACC-257 melanoma is 17.7 µM; in the assay with SN12C renal it was 3.76 µM. Further, the TGI in the assay on HOP-62 NSCLC was 36.2 µM; with NCI-H23 lung, 23.3 µM; with SNB-19 CNS, 33.8 µM; with EKVX NSCLC, 21.2 µM; with IGROV1 ovarian it was more than 56 µM; in the assay with UACC-257 melanoma it was 33 µM. Further, the TGI with SN12C renal came out at 12.6 µM.
